Measurements taken from patent US7262269B2, “Method for screening combinational bead library; ligands for cancer cells” (The Regents of University of California, priority 2001, dated 2007).

Assays:
[1] = system: non-small-cell lung cancer cell line, A549; experiment: cell-growth-on-bead assay, A549; assay type: cell-based, human; details: peptide resynthesized on beads, rescreened with A549 cells
Procedure: The cell-growth-on-bead assay includes the following steps. A one-bead-one-compound combinatorial library is prepared. The library is preferably synthesized using the “split synthesis” approach described in Lam et al., “A new type of synthetic peptide library,” 82-84. The compounds of the library may be small molecules, peptides, or other types of molecules. An example of a suitable library is a peptide library containing cXXXXXXc peptides, where “c” is D-cysteine which provides intramolecular cyclization by disulfide bonding, and “X” is any L, D, unnatural, or modified amino acid. A suitable solid phase support, such as beads or discs made of polystyrene, agarose, acrylamide, glass, plastic, or paramagnetic substances, is used. Polystyrene beads have been found satisfactory. A standard synthetic solid phase peptide synthesis method, such as fluorenylmethyoxycarbonyl (Fmoc) chemistry or t-butyloxycarbonyl (Boc) chemistry, is used. […]
The chemical structure of the compound (i.e. ligand) on each isolated positive bead 14 is then determined. If the combinatorial library used was a peptide library, then the amino acid sequence of the ligand is preferably determined with an automated protein sequencer, such as the Procise 494 (Applied Biosystems, Foster City, Calif.). Alternatively, the peptide can be released via a cleavable linker and the amino acid sequence determined by mass spectroscopy. […]

[2] = system: non-malignant bronchoepithelial cell line, HBE-1; experiment: cell-growth-on-bead assay, HBE-1; assay type: cell-based; details: HBE-1 cells
Procedure: The ratio of cells to beads is preferably about 10:1, but can range from about 1:1 to 100:1. The suspension of cells 10 and beads 12 is mixed gently for sufficient time to assure contact of beads 12 with suspended cells 10. The culture plates are incubated in a tissue culture incubator at about 4° C. to about 37° C., preferably 37° C., for a period of about 24 to about 72 hours. The suspension of cells 10 and beads 12 may be kept still or mixed, either continuously or intermittently, during the incubation period.
After the incubation period, beads 12 are observed under a dissecting microscope. […] These beads 14 (referred to as “positive” beads) are removed from the culture plates. A tetrazolium dye that stains live, but not dead, cells can be used to facilitate the identification and removal of the positive beads. If a dye is used, all of the beads are removed after the incubation period and resuspended in fresh medium in new culture plates. The dye is added. The plates are then incubated in a tissue culture incubator at 25° C. to 37° C. for about one to four hours. Live cells 10 convert the dye to a colored metabolite, which results in beads 14 with attached cells appearing colored, allowing them to be easily distinguished from beads 16 without attached cells, which appear colorless, as shown in FIG. 1E. Other dyes that stain live cells can also be used. […]

**Q.** For cNGRGEQc, which “beads with this sequence exhibiting cell attachment and growth on their surfaces” value [1] is on record?
**A.** Virtually all

**Q.** And the “peptide beads on which cell growth was observed” value [2]?
**A.** 10%
